Measured values from patent US8030321B2, “Benzofuro- and benzothienopyrimidine modulators of the histamine H4 receptor” (Janssen Pharmaceutica, NV, priority 2006, dated 2011).
Counter-ions that a name gives are not always drawn. Like-named read-outs stand apart in the source and are kept apart here.

Target: T1, human histamine H4 receptor (Homo sapiens, UniProt Q9H3N8)
T1 construct: expressed in transfected cells; host or cells: SK-N-MC cells or COS7 cells, transiently transfected; cell membranes used
Assay: Binding Assay on Recombinant Human Histamine H4 Receptor
Summary of the method: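 Membranes from SK-N-MC or COS7 cells transiently transfected with human H4 receptor were incubated with ³H-histamine (5-70 nM); nonspecific binding defined with 10,000 nM histamine. Bound radioactivity collected by GF/C filtration and scintillation counting; test compounds assessed by displacement of ³H-ligand binding across concentrations.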

[1] = competition binding with 3H-histamine (5 nM), membranes of SK-N-MC or COS7 cells expressing human H4 receptor, Cheng-Prusoff, KD 5 nM, average of results obtained, read-out: Ki

T1 sequence (Q9H3N8 whole entry): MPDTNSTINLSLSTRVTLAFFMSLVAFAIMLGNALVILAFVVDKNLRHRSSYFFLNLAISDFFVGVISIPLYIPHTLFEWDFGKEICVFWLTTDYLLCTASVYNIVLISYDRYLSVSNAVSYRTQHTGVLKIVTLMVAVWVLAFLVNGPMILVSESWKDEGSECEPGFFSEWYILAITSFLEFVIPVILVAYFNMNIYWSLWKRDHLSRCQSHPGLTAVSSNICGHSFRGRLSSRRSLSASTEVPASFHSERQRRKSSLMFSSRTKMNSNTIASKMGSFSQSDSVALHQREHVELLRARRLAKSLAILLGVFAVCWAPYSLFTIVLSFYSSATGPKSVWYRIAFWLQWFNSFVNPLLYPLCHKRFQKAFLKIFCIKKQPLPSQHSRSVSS

SMILES | Ki [1] [nM] | Ki [nM]
CN1CCN(c2nc(N)nc3c2sc2ccc(Cl)cc23)CC1 [Example 67, 8-Chloro-4-(4-methyl-piperazin-1-yl)-benzo[4,5]thieno[3,2-d]pyrimidin-2-ylamine trifluoroacetic acid salt] | 14 | –
Nc1nc(N2C[C@H]3C[C@@H]2CN3)c2oc3ccc(Cl)cc3c2n1 [Example 81, (R,R)-8-Chloro-4-(2,5-diaza-bicyclo[2.2.1]hept-2-yl)-benzo[4,5]furo[3,2-d]pyrimidin-2-ylamine trifluoroacetic acid salt] | – | 100
CN[C@@H]1CCN(c2nc(N)nc3c2oc2ccc(OC)cc23)C1 [Example 102, (R)-8-Methoxy-4-(3-methylamino-pyrrolidin-1-yl)-benzo[4,5]furo[3,2-d]pyrimidin-2-ylamine trifluoroacetic acid salt] | 12 | –
Nc1nc(N2CCC[C@H](N)C2)c2oc3ccc(Cl)cc3c2n1 [Example 13, (S)-4-(3-Amino-piperidin-1-yl)-8-chloro-benzo[4,5]furo[3,2-d]pyrimidin-2-ylamine trifluoroacetic acid salt] | 9.6 | –
NCC1CCN(c2nc(N)nc3c2oc2ccc(Cl)cc23)C1 (centres unmarked) [Example 29, 4-(3-Aminomethyl-pyrrolidin-1-yl)-8-chloro-benzo[4,5]furo[3,2-d]pyrimidin-2-ylamine trifluoroacetic acid salt] | 140 | –
Nc1nc(N2CCNCC2)c2oc3ccc(Cl)c(Cl)c3c2n1 [Example 104, 8,9-Dichloro-4-piperazin-1-yl-benzo[4,5]furo[3,2-d]pyrimidin-2-ylamine trifluoroacetic acid salt] | 61 | –
C[C@@H]1CN(c2nc(N)nc3c2oc2ccc(Cl)cc23)CCN1 [Example 134, (R)-8-Chloro-4-(5-methyl-piperazin-1-yl)-benzo[4,5]furo[3,2-d]pyrimidin-2-ylamine trifluoroacetic acid salt] | 50 | –
Nc1nc(N2CC3CNCC3C2)c2oc3ccc(Cl)cc3c2n1 (centres unmarked) [Example 27, 8-Chloro-4-(hexahydro-pyrrolo[3,4-c]pyrrol-2-yl)-benzo[4,5]furo[3,2-d]pyrimidin-2-ylamine trifluoroacetic acid salt] | 110 | –
Nc1nc(N2C[C@@H]3C[C@H]2CN3)c2sc3cc(C(F)(F)F)ccc3c2n1 [Example 53, (S,S)-4-(2,5-Diaza-bicyclo[2.2.1]hept-2-yl)-7-trifluoromethyl-benzo[4,5]thieno[3,2-d]pyrimidin-2-ylamine trifluoroacetic acid salt] | > 10000 | –
NCC1CN(c2nc(N)nc3c2oc2ccc(Cl)cc23)C1 [Example 103, 4-(3-Aminomethyl-azetidin-1-yl)-8-chloro-benzo[4,5]furo[3,2-d]pyrimidin-2-ylamine trifluoroacetic acid salt] | 3.4 | –
Nc1nc(N2CC3CCC(C2)N3)c2oc3ccc(Cl)cc3c2n1 [Example 97, 8-Chloro-4-(3,8-diaza-bicyclo[3.2.1]oct-3-yl)-benzo[4,5]furo[3,2-d]pyrimidin-2-ylamine trifluoroacetic acid salt] | – | 42
Nc1nc(N2CC(N)C2)c2oc3ccc(C(F)(F)F)cc3c2n1 [Example 144, 4-(3-Amino-azetidin-1-yl)-8-trifluoromethyl-benzo[4,5]furo[3,2-d]pyrimidin-2-ylamine] | > 10000 | –
Nc1nc(N2CCN3CCCCC3C2)c2oc3ccc(Cl)cc3c2n1 (centres unmarked) [Example 8, 8-Chloro-4-(octahydro-pyrido[1,2-a]pyrazin-2-yl)-benzo[4,5]furo[3,2-d]pyrimidin-2-ylamine] | 16 | –
NC[C@@H]1CCN(c2nc(N)nc3c2oc2ccc(Cl)cc23)C1 [Example 26, (S)-4-(3-Aminomethyl-pyrrolidin-1-yl)-8-chloro-benzo[4,5]furo[3,2-d]pyrimidin-2-ylamine trifluoroacetic acid salt] | 90 | –
Nc1nc(N2CCCNCC2)c2oc3c(Cl)cc(Cl)cc3c2n1 [Example 32, 6,8-Dichloro-4-[1,4]diazepan-1-yl-benzo[4,5]furo[3,2-d]pyrimidin-2-ylamine trifluoroacetic acid salt] | 160 | –
Nc1nc(N2C[C@@H]3C[C@H]2CN3)c2sc3ccc(Cl)cc3c2n1 [Example 68, (S,S)-8-Chloro-4-(2,5-diaza-bicyclo[2.2.1]hept-2-yl)-benzo[4,5]thieno[3,2-d]pyrimidin-2-ylamine trifluoroacetic acid salt] | – | 840
CN[C@H]1CCN(c2nc(N)nc3c2sc2ccc(Br)cc23)C1 [Example 47, (S)-8-Bromo-4-(3-methylamino-pyrrolidin-1-yl)-benzo[4,5]thieno[3,2-d]pyrimidin-2-ylamine hydrochloride salt] | 100 | –
CN[C@@H]1CCN(c2nc(N)nc3c2sc2cc(C(F)(F)F)ccc23)C1 [Example 52, (R)-4-(3-Methylamino-pyrrolidin-1-yl)-7-trifluoromethyl-benzo[4,5]thieno[3,2-d]pyrimidin-2-ylamine trifluoroacetic acid salt] | 120 | –
Nc1nc(N2CC[C@@H](N)C2)c2oc3ccccc3c2n1 [Example 108, (R)-4-(3-Amino-pyrrolidin-1-yl)-benzo[4,5]furo[3,2-d]pyrimidin-2-ylamine] | 2.6 | –
CN[C@@H]1CCN(c2nc(N)nc3c2oc2cccc(Cl)c23)C1 [Example 152, (R)-9-Chloro-4-(3-methylamino-pyrrolidin-1-yl)-benzo[4,5]furo[3,2-d]pyrimidin-2-ylamine trifluoroacetic acid salt] | 87 | –
